Consider two compounds from patent publication US20070202078A1, “Method Of Treating Viral Infections” (priority 2003, published 2007).

In one series the test system is HCV. Conditions: cited from earlier work.

Take `NC(=O)c1ncn([C@@H]2O[C@H](CO)[C@@H](O)[C@H]2O)n1` [Ribavirin, ribavirin]: in the series with hepatitis C (Example A: lower doses of ribavirin (less than 400 mg/day or less than 6 mg/kg/day), slow-release, with 3 million IU Intron A once weekly), the virologic response entry is listed as “sustained virologic response”. Moreover, in the series on hepatitis C (Example B: higher doses of ribavirin (600 mg/day), slow-release, with 3 million IU Intron A once weekly), the “therapeutic response versus conventional or systemic doses” value was “more complete or faster therapeutic response”. The “side effects versus conventional or systemic doses” value in the series with hepatitis C (human, in vivo) is recorded as “lower side effects”. Moreover, the “effect on HCV viral load or hepatic histology” value with HCV (given as monotherapy, orally) is reported as “no effect”.

In the case of interferon alfa 2b, in the series with HCV (administered parenterally for up to 6 months), the “response rate (measured by major fall in HCV levels)” value is recorded as about 25%.
